# Counter-ions that a name gives are not always drawn.
# Legend:
# [1] = biological target: T1, human adenosine A1 receptor (Homo sapiens, UniProt P30542); assay: Adenosine A1 Receptor Functional Assay (A1GAL2); assay type: cell-based; conditions: CHO-K1 cells, cAMP inducible beta-galactosidase reporter, 4 nM r-PIA/1 uM Forskolin challenge
# T1 construct: expressed in transfected cells; host or cells: CHO-K1
# T1 sequence (P30542 1-326): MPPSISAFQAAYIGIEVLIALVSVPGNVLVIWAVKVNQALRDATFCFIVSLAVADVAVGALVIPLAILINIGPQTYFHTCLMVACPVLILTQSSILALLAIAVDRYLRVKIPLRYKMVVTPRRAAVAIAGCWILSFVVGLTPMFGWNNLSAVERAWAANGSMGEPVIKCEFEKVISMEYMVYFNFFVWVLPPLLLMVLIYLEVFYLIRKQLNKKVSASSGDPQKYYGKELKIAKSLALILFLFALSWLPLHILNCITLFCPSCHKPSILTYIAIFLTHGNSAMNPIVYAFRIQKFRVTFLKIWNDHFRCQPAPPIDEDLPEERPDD
# In short: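 CHO-K1 cells expressing the receptor with a cAMP-inducible β-galactosidase reporter were preincubated with compound (11-point curves) about 15 min at room temperature, then challenged with r-PIA (4 nM)/forskolin (1 µM) for 5.5–6 h at 37 °C. Lysates were read colorimetrically at 405 nm, and IC/EC50 was obtained by curve fitting.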
# [2] = biological target: T2, human A2a adenosine receptor (Homo sapiens, UniProt P29274); assay: Ligand Binding Assay for Adenosine A2a Receptor (A2A-B); conditions: HEK293 plasma membrane, radioligand [3H]CGS21680
# T2 construct: purchased PerkinElmer RB-HA2a; host or cells: HEK293
# T2 sequence (P29274 whole entry): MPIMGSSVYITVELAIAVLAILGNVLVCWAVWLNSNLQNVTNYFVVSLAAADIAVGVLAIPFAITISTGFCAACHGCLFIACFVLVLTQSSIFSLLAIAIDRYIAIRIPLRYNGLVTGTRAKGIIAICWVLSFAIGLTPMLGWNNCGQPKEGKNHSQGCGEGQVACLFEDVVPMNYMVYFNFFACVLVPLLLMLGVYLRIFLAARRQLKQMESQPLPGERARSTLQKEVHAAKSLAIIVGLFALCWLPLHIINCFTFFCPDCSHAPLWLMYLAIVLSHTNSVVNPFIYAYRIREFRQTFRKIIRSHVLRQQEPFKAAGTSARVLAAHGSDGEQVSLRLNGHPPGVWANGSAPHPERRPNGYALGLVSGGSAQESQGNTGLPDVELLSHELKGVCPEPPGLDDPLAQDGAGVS
# Protocol: Ligand Binding Assay for Adenosine A2a Receptor
# Ligand binding assay of adenosine A2a receptor was performed using plasma membrane of HEK293 cells containing human A2a adenosine receptor (PerkinElmer, RB-HA2a) and radioligand [^3H]CGS21680 (PerkinElmer, NET 1021). Assay was set up in 96-well polypropylene plate in total volume of 200 μL by sequentially adding 20 μL 1:20 diluted membrane, 130 μL assay buffer (50 mM Tris.HCl, pH7.4 10 mM MgCl2, 1 mM EDTA) containing [^3H] CGS21680, 50 μL diluted compound (4×) or vehicle control in assay buffer. Nonspecific binding was determined by […] NECA. Reaction was carried out at room temperature for 2 hours before filtering through 96-well GF/C filter plate pre-soaked in 50 mM Tris.HCl, pH7.4 containing 0.3% polyethylenimine. Plates were then washed 5 times with cold 50 mM Tris.HCl, pH7.4, dried and sealed at the bottom. Microscintillation fluid 30 μL was added to each well and the top sealed. Plates were counted on Packard Topcount for [^3H]. Data was analyzed in Microsoft Excel and GraphPad Prism programs. (Varani, K.; Gessi, S.; Dalpiaz, A.; Borea, P. A. British Journal of Pharmacology, 1996, 117, 1693)
# [3] = biological target: T3, human adenosine A2a receptor (Homo sapiens, UniProt P29274); assay: Adenosine A2a Receptor Functional Assay (A2AGAL2); assay type: cell-based; conditions: CHO-K1 cells, cAMP inducible beta-galactosidase reporter, 15 nM NECA agonist challenge
# T3 construct: expressed in transfected cells; host or cells: CHO-K1
# T3 sequence (P29274 whole entry): as above
# In short: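 Antagonist mode in CHO-K1 cells expressing human A2a with a cAMP-inducible β-galactosidase reporter (10K cells/well, cultured 2 days). 11-point compound curves preincubated ~15 min at room temperature in Ham's F-12/0.1% BSA, then 15 nM NECA challenge, 5.5–6 h at 37 °C. Colorimetric β-gal read at 405 nm; IC/EC50 fitted.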
Ki [1],Ki [2],Ki [3],SMILES
2.72 µM,0.19 µM,0.229 µM,"Nc1nc(-c2ccco2)nc2sc(CN3CCC(=O)CC3)cc12 [Example 45, 1-(4-Amino-2-furan-2-yl-thieno[2,3-d]pyrimidin-6-ylmethyl)-piperidin-4-one]"
1.01 µM,0.0932 µM,0.0359 µM,"N#Cc1cccc(-c2nc(N)c3cc(CN4CCOCC4)sc3n2)c1 [Example 74, 3-(4-Amino-6-morpholin-4-ylmethyl-thieno[2,3-d]pyrimidin-2-yl)-benzonitrile]"
0.712 µM,0.0037 µM,0.0223 µM,"Nc1nc(-c2ccc(Cl)o2)nc2sc(CN3CCCC3)cc12 [Example 90, 2-(5-Chloro-furan-2-yl)-6-pyrrolidin-1-ylmethyl-thieno[2,3-d]pyrimidin-4-ylamine hydrochloride]"
0.878 µM,0.0082 µM,0.0115 µM,"Nc1nc(-c2ccco2)nc2sc(CN3CC[C@@H](F)C3)cc12 [Example 54, 6-(3-Fluoro-pyrrolidin-1-ylmethyl)-2-furan-2-yl-thieno[2,3-d]pyrimidin-4-ylamine]"
2.13 µM,0.137 µM,0.0552 µM,"CCN(CC)Cc1cc2c(N)nc(-c3ccco3)nc2s1 [Example 31, 6-Diethylaminomethyl-2-furan-2-yl-thieno[2,3-d]pyrimidin-4-ylamine]"
1.42 µM,0.0018 µM,0.0332 µM,"Nc1nc(-c2ccc(Cl)o2)nc2sc(CN3CCCCCC3)cc12 [Example 93, 6-Azepan-1-ylmethyl-2-(5-chloro-furan-2-yl)-thieno[2,3-d]pyrimidin-4-ylamine]"
0.8 µM,0.015 µM,0.022 µM,"Nc1nc(-c2ccc(Br)o2)nc2sc(CN3CCCC3)cc12 [Example 35, 2-(5-Bromo-furan-2-yl)-6-pyrrolidin-1-ylmethyl-thieno[2,3-d]pyrimidin-4-ylamine]"
1.08 µM,0.184 µM,0.102 µM,"COc1cccc(-c2nc(N)c3cc(CN4CC=CCC4)sc3n2)c1 [Example 80, 6-(3,6-Dihydro-2H-pyridin-1-ylmethyl)-2-(3-methoxy-phenyl)-thieno[2,3-d]pyrimidin-4-ylamine]"
1.03 µM,0.015 µM,0.121 µM,"Nc1nc(-c2ccco2)nc2sc(CNC34CC5CC(CC(C5)C3)C4)cc12 [Example 91, 6-(Adamantan-1-ylaminomethyl)-2-furan-2-yl-thieno[2,3-d]pyrimidin-4-ylamine]"
3.55 µM,0.089 µM,0.143 µM,"CN(C)Cc1cc2c(N)nc(-c3ccco3)nc2s1 [Example 46, 6-Dimethylaminomethyl-2-furan-2-yl-thieno[2,3-d]pyrimidin-4-ylamine]"
1.05 µM,0.0327 µM,0.0319 µM,"Cc1ccc(-c2nc(N)c3cc(CN4CCOCC4)sc3n2)o1 [Example 38, 2-(5-Methyl-furan-2-yl)-6-morpholin-4-ylmethyl-thieno[2,3-d]pyrimidin-4-ylamine]"
1.08 µM,0.0019 µM,0.0359 µM,"Nc1nc(-c2ccc(Cl)o2)nc2sc(CN3CCC(F)CC3)cc12 [Example 89, 2-(5-Chloro-furan-2-yl)-6-(4-fluoro-piperidin-1-ylmethyl)-thieno[2,3-d]pyrimidin-4-ylamine hydrochloride]"
0.62 µM,0.0109 µM,0.0259 µM,"Cc1ccc(-c2nc(N)c3cc(CN4CCCC4)sc3n2)o1 [Example 39, 2-(5-Methyl-furan-2-yl)-6-pyrrolidin-1-ylmethyl-thieno[2,3-d]pyrimidin-4-ylamine]"
2.48 µM,0.142 µM,0.168 µM,"Nc1nc(-c2ccco2)nc2sc(CNC3CCCCC3)cc12 [Example 32, 6-Cyclohexylaminomethyl-2-furan-2-yl-thieno[2,3-d]pyrimidin-4-ylamine]"
1.81 µM,0.242 µM,0.0975 µM,"COc1cccc(-c2nc(N)c3cc(CN4CCCC(F)(F)C4)sc3n2)c1 [Example 86, 6-(3,3-Difluoro-piperidin-1-ylmethyl)-2-(3-methoxy-phenyl)-thieno[2,3-d]pyrimidin-4-ylamine]"
2.35 µM,0.076 µM,0.0789 µM,"N#Cc1ccc(-c2nc(N)c3cc(CN4CC=CC4)sc3n2)cc1 [Example 88, 4-[4-Amino-6-(2,5-dihydro-pyrrol-1-ylmethyl)-thieno[2,3-d]pyrimidin-2-yl]-benzonitrile]"
0.294 µM,0.0084 µM,0.00662 µM,"Nc1nc(-c2ccco2)nc2sc(CN3CCCC(F)(F)C3)cc12 [Example 57, 6-(3,3-Difluoro-piperidin-1-ylmethyl)-2-furan-2-yl-thieno[2,3-d]pyrimidin-4-ylamine]"
0.212 µM,0.378 µM,0.0133 µM,"N#Cc1cccc(-c2nc(N)c3cc(CN4CC=CCC4)sc3n2)c1 [Example 68, 3-[4-Amino-6-(3,6-dihydro-2H-pyridin-1-ylmethyl)-thieno[2,3-d]pyrimidin-2-yl]-benzonitrile]"
0.188 µM,0.0034 µM,0.0107 µM,"Nc1nc(-c2ccc(Cl)o2)nc2sc(CN3CC=CCC3)cc12 [Example 95, 2-(5-Chloro-furan-2-yl)-6-(3,6-dihydro-2H-pyridin-1-ylmethyl)-thieno[2,3-d]pyrimidin-4-ylamine]"
1.78 µM,0.281 µM,0.0649 µM,"N#Cc1cccc(-c2nc(N)c3cc(CN4CCSCC4)sc3n2)c1 [Example 83, 3-(4-Amino-6-thiomorpholin-4-ylmethyl-thieno[2,3-d]pyrimidin-2-yl)-benzonitrile]"
1.34 µM,0.0059 µM,0.0098 µM,"Nc1nc(-c2ccco2)nc2sc(CN3CCC(F)C3)cc12 (stereo not drawn) [Example 51, 6-(3-Fluoro-pyrrolidin-1-ylmethyl)-2-furan-2-yl-thieno[2,3-d]pyrimidin-4-ylamine]"
2.07 µM,0.077 µM,0.0835 µM,"N#Cc1cccc(-c2nc(N)c3cc(CN4CC=CC4)sc3n2)c1 [Example 64, 3-[4-Amino-6-(2,5-dihydro-pyrrol-1-ylmethyl)-thieno[2,3-d]pyrimidin-2-yl]-benzonitrile]"
4 µM,0.22 µM,0.297 µM,"Nc1nc(-c2ccco2)nc2sc(CN3CCC(O)CC3)cc12 [Example 52, 1-(4-Amino-2-furan-2-yl-thieno[2,3-d]pyrimidin-6-ylmethyl)-piperidin-4-ol]"
0.698 µM,0.202 µM,0.0183 µM,"Nc1nc(-c2ccc(Br)o2)nc2sc(CN3CCOCC3)cc12 [Example 7, 2-(5-Bromo-furan-2-yl)-6-morpholin-4-ylmethyl-thieno[2,3-d]pyrimidin-4-ylamine]"
2.95 µM,0.444 µM,0.0538 µM,"N#Cc1cccc(-c2nc(N)c3cc(CN4CCC(F)CC4)sc3n2)c1 [Example 82, 3-[4-Amino-6-(4-fluoro-piperidin-1-ylmethyl)-thieno[2,3-d]pyrimidin-2-yl]-benzonitrile]"

SMILES,Ki [1],Ki [2],Ki [3]
"N#Cc1cccc(-c2nc(N)c3cc(CN4C5CCC4CC5)sc3n2)c1 [Example 77, 3-[4-Amino-6-(7-aza-bicyclo[2.2.1]hept-7-ylmethyl)-thieno[2,3-d]pyrimidin-2-yl]-benzonitrile]",2.17 µM,0.0749 µM,0.095 µM

# From patent US20100093702A1, “METHYLENE AMINES OF THIENO[2,3-d]PYRIMIDINE AND THEIR USE AS ADENOSINE A2a RECEPTOR ANTAGONISTS” (priority 2008, published 2010)
